Where a name gives a salt, the structure may show the parent alone.
What follows are molecules tested against T1, human 5-HT6 receptor (Homo sapiens, UniProt P50406) (assay: 5-HT6 receptor binding assay ([3H]-LSD competition)). Settings: membranes of NIH 3T3 cells stably expressing the human 5-HT6 gene; [3H]-LSD radioligand; IC50 converted to pKi by Cheng-Prusoff equation; read-out: pKi (affinity for the 5-HT6 receptor) (converted).
T1 construct: expressed in transfected cells
Method: The ability of the compounds of the invention to interact with the 5-HT6 receptor is established in (competitive) binding studies to NIH 3T3 cells stably expressing the human 5-HT6 receptor.
NIH 3T3 cells stably expressing the human 5-HT6 gene were grown at 37° C. in a 5% CO2 atmosphere in DMEM supplemented with 10% cosmic calf serum (Hyclone) and subcultured when confluent. Cells were harvested by trypsination (Sigma) and membranes prepared by homogenisation followed by centrifugation in […] Tris buffer (pH 7.4) containing […] magnesium sulphate and […] EDTA. Radioligand binding assays were performed in 96 well polystyrene deep well plates (Semat) in a final volume of 500 μl, consisting of 100 μl of competing drug, 100 μl of 10 nmole·L^−1 [^3H]-lysergic acid diethylamide (LSD) and 300 μl of diluted membrane expressing the 5-HT6 receptor. All test compounds were dissolved in DMSO (dimethyl-sulfoxide) at 10 mM and serially diluted is assay buffer to give a six-fold concentration range (between 0.01 nM and 100 μM). Non-specific binding was determined with 10 μM Methiothepin. Plates were incubated at room temperature for 90 minutes. The reactions were terminated by rapid filtration using a Packard harvester onto 96 well GF/B filter plates (Packerd Unifilter) presoaked with 0.3% w/N polyethyleneimine, washed 3 times with ice-cold assay buffer (1 ml), oven dried and 50 μl Microscint-20 added. The retained radioactivity was then determined using a scintillation counter.
Data were analysed using standard curve fitting procedures (Graphpad: four parameter logistic equation) to produce IC50 values for active compounds (where IC50 is the concentration of test compound causing 50% inhibition of binding). IC50 values were conerted to pKi values using the Cheng-Prusoff equation 1 (Cheng, Y. and Prosoff, W. H., Biochem. Pharmacol. 22, 3099-3108, 1973).

T1 sequence (P50406 whole entry): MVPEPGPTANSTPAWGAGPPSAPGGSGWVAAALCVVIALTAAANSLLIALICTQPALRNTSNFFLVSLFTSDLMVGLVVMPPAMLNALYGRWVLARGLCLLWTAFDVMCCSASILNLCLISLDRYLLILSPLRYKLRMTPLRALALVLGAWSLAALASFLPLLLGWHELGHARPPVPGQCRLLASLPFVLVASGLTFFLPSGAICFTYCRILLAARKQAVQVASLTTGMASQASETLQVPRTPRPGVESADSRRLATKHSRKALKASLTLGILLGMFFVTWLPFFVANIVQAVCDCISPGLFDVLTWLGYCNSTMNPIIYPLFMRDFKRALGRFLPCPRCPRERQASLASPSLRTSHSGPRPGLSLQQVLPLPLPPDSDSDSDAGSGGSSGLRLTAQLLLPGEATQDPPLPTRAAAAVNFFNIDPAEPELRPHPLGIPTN

Ki [µM] | SMILES
< 0.0316 | COc1ccc(S(=O)(=O)N2CC(C(=O)NCCC3CCCN3C)c3ccccc32)c2ccccc12 (centres unmarked) [Example 1, 1-(4-Methoxynaphthalene-1-sulfonyl)-2,3-dihydro-1H-indole-3-carboxylic acid [2-(1-methyl-pyrrolidin-2-yl)-ethyl]amide]
< 0.0316 | COc1ccc(S(=O)(=O)N2CC(C(=O)NC3CCCN(C)C3)c3ccccc32)c2ccccc12 (centres unmarked) [Example 2, 1-(4-Methoxynaphthalene-1-sulfonyl)-2,3-dihydro-1H-indole-3-carboxylic acid (1-methyl-piperidin-3-yl)amide]
< 0.0316 | COc1ccc(S(=O)(=O)N2CC(C(=O)N3CCNCC3)c3ccccc32)c2ccccc12 (centres unmarked) [Example 17, [1-(4-Methoxynaphthalene-1-sulfonyl)-2,3-dihydro-1H-indol-3-yl]-piperazin-1-yl-methanone]
< 0.0316 | CCN(CC)CCNC(=O)C1CN(S(=O)(=O)c2ccc(OC)c3ccccc23)c2ccccc21 (centres unmarked) [Example 24, 1-(4-Methoxynaphthalene-1-sulfonyl)-2,3-dihydro-1H-indole-3-carboxylic acid (2-diethylamino-ethyl)-amide]
< 0.0316 | COc1ccc(S(=O)(=O)N2CC(C(=O)NC3CCN(C)CC3)c3ccccc32)c2ccccc12 (centres unmarked) [Example 25, 1-(4-Methoxynaphthalene-1-sulfonyl)-2,3-dihydro-1H-indole-3-carboxylic acid (1-methyl-piperidin-4-yl)-amide]
< 0.0316 | COc1ccc(S(=O)(=O)N2CC(C(=O)N(C)C3CCN(C)CC3)c3ccccc32)c2ccccc12 (centres unmarked) [Example 35, 1-(4-Methoxynaphthalene-1-sulfonyl)-2,3-dihydro-1H-indole-3-carboxylic acid methyl-(1-methyl-piperidin-4-yl)-amide]
< 0.0316 | CN1CCC(N(C)C(=O)C2CN(S(=O)(=O)c3cccc(C(F)(F)F)c3)c3ccccc32)CC1 (centres unmarked) [Example 39, 1-(3-Trifluoromethyl-benzenesulfonyl)-2,3-dihydro-1H-indole-3-carboxylic acid methyl-(1-methyl-piperidin-4-yl)-amide trifluoroacetate]
< 0.0316 | CN1CCC(N(C)C(=O)C2CN(S(=O)(=O)c3cccc(Br)c3)c3ccccc32)CC1 (centres unmarked) [Example 40, 1-(3-Bromo-benzenesulfonyl)-2,3-dihydro-1H-indole-3-carboxylic acid methyl-(1-methyl-piperidin-4-yl)-amide trifluoroacetate]
< 0.0316 | CN1CCC(N(C)C(=O)C2CN(S(=O)(=O)c3ccc(OC(F)(F)F)cc3)c3ccccc32)CC1 (centres unmarked) [Example 42, 1-(4-Trifluoromethoxy-benzenesulfonyl)-2,3-dihydro-1H-indole-3-carboxylic acid methyl-(1-methyl-piperidin-4-yl)-amide trifluoroacetate]
< 0.0316 | CN1CCC(N(C)C(=O)C2CN(S(=O)(=O)c3ccc(C(F)(F)F)cc3)c3ccccc32)CC1 (centres unmarked) [Example 50, 1-(4-Trifluoromethyl-benzenesulfonyl)-2,3-dihydro-1H-indole-3-carboxylic acid methyl-(1-methyl-piperidin-4-yl)-amide trifluoroacetate]
< 0.0316 | CN1CCC(N(C)C(=O)C2CN(S(=O)(=O)c3cc(Cl)sc3Cl)c3ccccc32)CC1 (centres unmarked) [Example 51, 1-(2,5-Dichloro-thiophene-3-sulfonyl)-2,3-dihydro-1H-indole-3-carboxylic acid methyl-(1-methyl-piperidin-4-yl)-amide trifluoroacetate]
< 0.0316 | CN1CCC(N(C)C(=O)C2CN(S(=O)(=O)c3ccc4c(c3)CCO4)c3ccccc32)CC1 (centres unmarked) [Example 55, 1-(2,3-Dihydro-benzofuran-5-sulfonyl)-2,3-dihydro-1H-indole-3-carboxylic acid methyl-(1-methyl-piperidin-4-yl)-amide trifluoroacetate]
< 0.0316 | CN1CCC(N(C)C(=O)C2CN(S(=O)(=O)c3ccc4ccccc4c3)c3ccccc32)CC1 (centres unmarked) [Example 58, 1-(Naphthalene-2-sulfonyl)-2,3-dihydro-1H-indole-3-carboxylic acid methyl-(1-methyl-piperidin-4-yl)-amide trifluoroacetate]
< 0.0316 | CN1CCC(N(C)C(=O)C2CN(S(=O)(=O)c3cccc4ccccc34)c3ccccc32)CC1 (centres unmarked) [Example 59, 1-(Naphthalene-1-sulfonyl)-2,3-dihydro-1H-indole-3-carboxylic acid methyl-(1-methyl-piperidin-4-yl)-amide trifluoroacetate]
< 0.0316 | CN1CCC(N(C)C(=O)C2CN(S(=O)(=O)c3cccc(-c4ccccc4)c3)c3ccccc32)CC1 (centres unmarked) [Example 60, 1-(Biphenyl-3-sulfonyl)-2,3-dihydro-1H-indole-3-carboxylic acid methyl-(1-methyl-piperidin-4-yl)-amide trifluoroacetate]
< 0.0316 | CN1CCC(N(C)C(=O)C2CN(S(=O)(=O)c3csc4ccccc34)c3ccccc32)CC1 (centres unmarked) [Example 62, 1-(Benzo[b]thiophene-3-sulfonyl)-2,3-dihydro-1H-indole-3-carboxylic acid methyl-(1-methyl-piperidin-4-yl)-amide trifluoroacetate]
< 0.0316 | COc1ccc(S(=O)(=O)N2CC(C(=O)N(C)C3CCN(C)CC3)c3ccccc32)cc1Br (centres unmarked) [Example 69, 1-(3-Bromo-4-methoxy-benzenesulfonyl)-2,3-dihydro-1H-indole-3-carboxylic acid methyl-(1-methyl-piperidin-4-yl)-amide trifluoroacetate]
< 0.0316 | CN1CCC(N(C)C(=O)C2CN(S(=O)(=O)c3cccc4c(Cl)cccc34)c3ccccc32)CC1 (centres unmarked) [Example 71, 1-(5-Chloro-naphthalene-1-sulfonyl)-2,3-dihydro-1H-indole-3-carboxylic acid methyl-(1-methyl-piperidin-4-yl)-amide trifluoroacetate]
< 0.0316 | Cc1cc(S(=O)(=O)N2CC(C(=O)N(C)C3CCN(C)CC3)c3ccccc32)c(C(F)(F)F)o1 (centres unmarked) [Example 109, 1-(5-Methyl-2-trifluoromethyl-furan-3-sulphonyl)-2,3-dihydro-1H-indole-3-carboxylic acid methyl-(1-methyl-piperidin-4-yl)-amide]

SMILES | Ki [µM]
COc1ccc(S(=O)(=O)N2CC(C(=O)NC3CC4CCC(C3)N4C)c3ccccc32)c2ccccc12 (centres unmarked) [Example 31, 1-(4-Methoxynaphthalene-1-sulfonyl)-2,3-dihydro-1H-indole-3-carboxylic acid (8-methyl-8-aza-bicyclo[3.2.1]oct-3-yl)amide] | < 0.0316
